Results taken from paper PMC6100582 (Molecules : A Journal of Synthetic Chemistry and Natural …, 2018).
≈ marks a conversion by molar mass, not a printed value. Like-named read-outs stand apart in the source and are kept apart here.

Key:
[1] = system: HCT-116 (colorectal carcinoma); experiment: Antiproliferative screening (cytostatic activity); assay type: cell-based; settings: Homo sapiens, HCT-116; 72 h, IncuCyte imaging; read-out: IC50 HCT-116
Procedure: (§1) All human tumor cell lines were acquired from the American Type Culture Collection (ATCC, Manassas, VA, USA), except for the DND-41 cell line which was purchased from the Deutsche Sammlung von Mikroorganismen und Zellkulturen (DSMZ Leibniz-Institut, Braunschweig, Germany) and the Hap1 cell line which was purchased from Horizon Discovery (Waterbeach, UK). […] All media were supplemented with 10% FBS (HyClone, GE Healthcare Life Sciences, USA). […] After overnight incubation, cells were treated with test compounds at four different concentrations ranging from 100 to 0.8 µM. […] Images were taken every 3 h, with one field image per well under 10× magnification. All compounds were tested with duplicate data points and averaged.

[2] = system: Z-138 (non-Hodgkin lymphoma); experiment: Antiproliferative screening (cytostatic activity); assay type: cell-based; settings: Homo sapiens, Z-138; 72 h, IncuCyte imaging; read-out: IC50 Z-138
Procedure: as §1

[3] = system: Capan-1 (pancreatic adenocarcinoma); experiment: Antiproliferative screening (cytostatic activity); assay type: cell-based; settings: Homo sapiens, CAPAN-1; 72 h, IncuCyte imaging; read-out: IC50 Capan-1
Procedure: as §1

[4] = system: Streptococcus pneumoniae MFBF 10373; experiment: Antimicrobial susceptibility assay in vitro (MIC determination); assay type: cell-based; settings: MFBF10373, serial microdilution, 18 h, 35 °C
Procedure: (§2) Stock solutions of the tested compounds were prepared in DMSO (10 mg/mL). […] The absorbance was recorded at 540 nm. As a positive quality control (susceptibility of strains) tetracycline hydrochloride (TC) (Sigma-Aldrich) was added into wells.

[5] = system: Acinetobacter baumannii MFBF 10913; experiment: as above; assay type: cell-based; settings: MFBF10913, serial microdilution, 18 h, 35 °C
Procedure: as §2

[6] = system: Bacillus subtilis ATCC 6633; experiment: as above; assay type: cell-based; settings: ATCC6633, serial microdilution, 18 h, 35 °C
Procedure: as §2

[7] = system: Bacillus cereus ATCC 11778; experiment: as above; assay type: cell-based; settings: ATCC11778, serial microdilution, 18 h, 35 °C
Procedure: as §2

[8] = system: Streptococcus pneumonia MFBF 10373; experiment: Minimum biofilm eradication assay; assay type: cell-based, Streptococcus pneumoniae
Procedure: MBECs of fumardiamides 4a–f and succindiamides 5a–f were determined as follows. Each well (96-well plate) was filled with 100 µl of bacterial (10^7 CFU/mL) or yeast (5 × 10^6 CFU/mL) suspension. When the inhibition of yeast biofilm formation was tested, the wells were pre-treated with fetal bovine serum (FBS) (250 µl per well). Negative controls contained broth only. Positive controls were performed using standard antimicrobial drugs gentamycin (Gen) and Amph, respectively. […] Following incubation period, each well was aspirated, washed three times and vigorously shaken to remove all non-adherent bacteria/yeast. The remaining attached cells were fixed with methanol (15 min) and the plates were left to dry overnight. Formed biofilm was stained with crystal violet (1%, 5 min). Excess stain was rinsed by placing the plate under running tap water and the plates were left to dry. Adherent cells were solubilized using ethanol. The absorbance was read at 570 nm. The MBEC value represents the lowest dilution of a compound at which bacteria fail to grow.

Coxsackie Virus B4 = experiment: Antiviral activity in Vero cell cultures; assay type: cell-based; settings: Enterovirus B, B4, Vero cells
[9] = system: Mycobacterium marinum CAMP 5644; experiment: Antimycobacterial susceptibility assay (MIC determination); assay type: cell-based; settings: CAMP5644, 504 h
Procedure: The broth dilution micro-method in Middlebrook 7H9 medium (Difco, Lawrence, KS, USA) supplemented with ADC Enrichment (Becton, Dickinson and Comp.) was used to determine MIC as previously described. […] Bacterial inocula were prepared by transferring colonies from culture to sterile water. The cell density was adjusted to 0.5 McFarland units using a densitometer (Densi-La-Meter, LIAP, Riga, Latvia). The final inoculum was made by 1:1000 dilution of the suspension with sterile water. Drug-free controls, sterility controls and controls consisted of medium and DMSO (Sigma-Aldrich, St. Louis, MO, USA) alone were included. […] Ciprofloxacin (CIP), rifampicin (RIF) and isoniazid (INH) (Sigma-Aldrich, St. Louis, MO, USA) were used as the standards.

[10] = system: Staphylococcus aureus ATCC 6538; experiment: Antimicrobial susceptibility assay in vitro (MIC determination); assay type: cell-based; settings: ATCC6538
[11] = system: Enterococcus faecalis ATCC 29212; experiment: as above; assay type: cell-based
[12] = system: Hap1 (chronic myeloid leukemia); experiment: Antiproliferative screening (cytostatic activity); assay type: cell-based; settings: Homo sapiens, HAP1; 72 h, IncuCyte imaging; read-out: IC50 Hap1
Procedure: (§3) Cytostatic activity was evaluated in vitro on nine different types of human tumor cell lines: Capan-1, Hap1, HCT-116, and NCI-H460, as well as hematological tumors such as DND-41, HL-60, K-562, MM.1S and Z-138 as described previously. All human tumor cell lines were acquired from the American Type Culture Collection (ATCC, Manassas, VA, USA), except for the DND-41 cell line which was purchased from the Deutsche Sammlung von Mikroorganismen und Zellkulturen (DSMZ Leibniz-Institut, Braunschweig, Germany) and the Hap1 cell line which was purchased from Horizon Discovery (Waterbeach, UK). Capan-1, Hap1, HL-60, K-562, Z-138, MM.1S and DND-41 were cultured in Iscove′s Modified Dulbecco′s Medium (IMDM, Gibco Life Technologies, Gaithersburg, MD, USA), HCT-116 were grown in McCoy′s 5A Medium (Gibco Life Technologies) and NCI-H460 were cultured in RPMI (Gibco Life Technologies). All media were supplemented with 10% FBS (HyClone, GE Healthcare Life Sciences, USA). Adherent cell lines HCT-116, Hap1, NCI-H460, and Capan-1 cells were seeded at a density between 400 and 1250 cells per well, in 384-well, black-walled, clear-bottomed tissue culture plates (Greiner Bio-One, Kremsmünster, Germany). After overnight incubation, cells were treated with test compounds at four different concentrations ranging from 100 to 0.8 µM. Suspension cell lines HL-60, K-562, Z-138, MM.1S, and DND-41 were seeded at densities ranging from 3000 to 10,000 cells per well in 384-well, black-walled, clear-bottomed tissue culture plates containing test compounds at the same four concentrations. The plates were incubated and monitored at 37 °C for 72 h in an IncuCyte (Essen BioScience Inc., Ann Arbor, MI, USA) for real-time imaging. Images were taken every 3 h, with one field image per well under 10× magnification. All compounds were tested with duplicate data points and averaged. […]

[13] = system: HL-60 (acute myeloid leukemia); experiment: Antiproliferative screening (cytostatic activity); assay type: cell-based; settings: Homo sapiens, HL-60; 72 h, IncuCyte imaging; read-out: IC50 HL-60
Procedure: as §3

[14] = MTS, read-out: EC50 Coxsackie Virus B4, MTS
[15] = Mycobacterium marinum CAMP 5644, 21 days, 28 °C, read-out: MIC
[16] = Enterococcus faecalis, ATCC29212, 24 h
[17] = ATCC29212, Enterococcus faecalis ATCC 29212, broth dilution, 24 h, 37 °C, read-out: MIC
[18] = visual CPE score, read-out: EC50 Coxsackie Virus B4, Visual CPE Score

COc1cc(NC(C)CCCNC(=O)/C=C/C(=O)Nc2cccc(F)c2)c2ncccc2c1 (centres unmarked) [Compound 4a, (2E)-N-(3-Fluorophenyl)-N′-{4-[(6-methoxyquinolin-8-yl)amino]pentyl}but-2-enediamide]
IC50 [1]: 22.3 µM
IC50 [2]: 8.4 µM
IC50 [3]: 16.9 µM
MIC [4]: > 100 µg/mL
MIC [5]: > 100 µg/mL
MIC [6]: 50 µg/mL (≈ 111 µM)
MIC [7]: > 100 µg/mL
MBEC [8]: 12.5 µg/mL
EC50 (Coxsackie Virus B4; [14]): > 50 µM
MIC [9, 15]: > 256 µg/mL
MIC [10]: > 100 µg/mL
MIC [11, 16]: 128 µg/mL (≈ 284 µM)
IC50 [12]: 19.3 µM
IC50 [13]: 5.7 µM

COc1cc(NC(C)CCCNC(=O)/C=C/C(=O)Nc2ccc(F)cc2)c2ncccc2c1 (centres unmarked) [Compound 4b, (2E)-N-(4-Fluorophenyl)-N′-{4-[(6-methoxyquinolin-8-yl)amino]pentyl}but-2-enediamide]
IC50 [1]: > 100 µM
IC50 [2]: > 100 µM
IC50 [3]: 50.5 µM
MIC [4]: 12.5 µg/mL (≈ 27.7 µM)
MIC [5]: 25 µg/mL (≈ 55.5 µM)
MIC [6]: 25 µg/mL (≈ 55.5 µM)
MIC [7]: 25 µg/mL (≈ 55.5 µM)
MBEC [8]: 25 µg/mL
EC50 (Coxsackie Virus B4; [14]): > 50 µM
MIC [9, 15]: 64 µg/mL (≈ 142 µM)
MIC [10]: 12.5 µg/mL (≈ 27.7 µM)
MIC [11, 17]: 64 µg/mL (≈ 142 µM)
IC50 [12]: 66.4 µM
IC50 [13]: > 100 µM

COc1cc(NC(C)CCCNC(=O)/C=C/C(=O)Nc2cccc(Cl)c2)c2ncccc2c1 (centres unmarked) [Compound 4c, (2E)-N-(3-Chlorophenyl)-N′-{4-[(6-methoxyquinolin-8-yl)amino]pentyl}but-2-enediamide]
IC50 [1]: 73 µM
IC50 [2]: 46.5 µM
IC50 [3]: 69.9 µM
MIC [4]: 25 µg/mL (≈ 53.5 µM)
MIC [5]: 25 µg/mL (≈ 53.5 µM)
MIC [6]: 50 µg/mL (≈ 107 µM)
MIC [7]: 25 µg/mL (≈ 53.5 µM)
MBEC [8]: 100 µg/mL
EC50 (Coxsackie Virus B4; [14]): > 50 µM
EC50 (Coxsackie Virus B4; [18]): > 50 µM
MIC ([9]; Mycobacterium marinum): 128 µg/mL (≈ 274 µM)
MIC [10]: 12.5 µg/mL (≈ 26.8 µM)
MIC [11, 17]: 256 µg/mL (≈ 548 µM)
IC50 [12]: > 100 µM
IC50 [13]: > 100 µM

COc1cc(NC(C)CCCNC(=O)/C=C/C(=O)Nc2ccc(Cl)cc2)c2ncccc2c1 (centres unmarked) [Compound 4d, (2E)-N-(4-Chlorophenyl)-N′-{4-[(6-methoxyquinolin-8-yl)amino]pentyl}but-2-enediamide]
IC50 [1]: > 100 µM
IC50 [2]: > 100 µM
IC50 [3]: 91.8 µM
MIC [4]: 12.5 µg/mL (≈ 26.8 µM)
MIC [5]: 12.5 µg/mL (≈ 26.8 µM)
MIC [6]: > 100 µg/mL
MIC [7]: > 100 µg/mL
MBEC [8]: 50 µg/mL
EC50 (Coxsackie Virus B4; [14]): > 50 µM
MIC [9, 15]: 64 µg/mL (≈ 137 µM)
MIC [10]: 6.1 µg/mL (≈ 13.1 µM)
MIC [11, 17]: 64 µg/mL (≈ 137 µM)
IC50 [12]: > 100 µM
IC50 [13]: > 100 µM

COc1cc(NC(C)CCCNC(=O)/C=C/C(=O)Nc2cccc(C(F)(F)F)c2)c2ncccc2c1 (centres unmarked) [Compound 4e, (2E)-N′-{4-[(6-Methoxyquinolin-8-yl)amino]pentyl}-N-[3-(trifluoromethyl)phenyl]but-2-enediamide]
IC50 [1]: > 100 µM
IC50 [2]: 68.4 µM
IC50 [3]: 56.5 µM
MIC [4]: 50 µg/mL (≈ 99.9 µM)
MIC [5]: 25 µg/mL (≈ 49.9 µM)
MIC [6]: > 100 µg/mL
MIC [7]: > 100 µg/mL
MBEC [8]: 50 µg/mL
EC50 (Coxsackie Virus B4; [14]): 3.1 µM
EC50 (Coxsackie Virus B4; [18]): 2.7 µM
MIC [9, 15]: 256 µg/mL (≈ 511 µM)
MIC [10]: 50 µg/mL (≈ 99.9 µM)
MIC [11, 16]: 128 µg/mL (≈ 256 µM)
IC50 [12]: > 100 µM
IC50 [13]: > 100 µM

COc1cc(NC(C)CCCNC(=O)/C=C/C(=O)Nc2ccc(C(F)(F)F)cc2)c2ncccc2c1 (centres unmarked) [Compound 4f, (2E)-N′-{4-[(6-Methoxyquinolin-8-yl)amino]pentyl}-N-[4-(trifluoromethyl)phenyl]but-2-enediamide]
IC50 [1]: > 100 µM
IC50 [2]: > 100 µM
IC50 [3]: 79.4 µM
MIC [4]: 50 µg/mL (≈ 99.9 µM)
MIC [5]: 25 µg/mL (≈ 49.9 µM)
MIC [6]: > 100 µg/mL
MIC [7]: > 100 µg/mL
MBEC [8]: 50 µg/mL
EC50 (Coxsackie Virus B4; [14]): > 50 µM
MIC [9, 15]: 64 µg/mL (≈ 128 µM)
MIC [10]: 50 µg/mL (≈ 99.9 µM)
MIC [11, 17]: 64 µg/mL (≈ 128 µM)
IC50 [12]: > 100 µM
IC50 [13]: > 100 µM
